Activity calls are given as the source filed them. The calls are words filed in the database; no cut-off is given here.
How the values were obtained:
L5178Y [1] = assay: In vitro percent inhibition at 10 e-8 M against L5178Y cell growth after 72 hr (replicate flasks inoculated with 10 e5 cells were treated with the nucleotide); assay type: functional; conditions: Mus musculus
[2] = target: T1, Thymidylate synthase (Lactobacillus casei) (UniProt P00469); assay: Compound was tested for its inhibition against Thymidylate synthase up to concentration of 1 mM; IA means inactive; conditions: Lacticaseibacillus casei
T1 sequence (whole entry): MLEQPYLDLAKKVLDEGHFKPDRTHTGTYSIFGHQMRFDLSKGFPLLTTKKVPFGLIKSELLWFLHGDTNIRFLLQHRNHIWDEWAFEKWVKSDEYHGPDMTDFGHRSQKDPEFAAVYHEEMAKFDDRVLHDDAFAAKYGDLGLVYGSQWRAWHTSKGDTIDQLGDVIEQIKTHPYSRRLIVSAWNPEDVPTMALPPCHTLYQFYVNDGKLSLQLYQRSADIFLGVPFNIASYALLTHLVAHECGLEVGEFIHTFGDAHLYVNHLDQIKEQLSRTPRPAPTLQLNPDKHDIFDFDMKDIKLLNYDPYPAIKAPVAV

L5178Y [3] = assay: Comparative inhibition of L5178Y cell growth in vitro (concentration required for 50% inhibition); assay type: functional, cell-based; conditions: Mus musculus
[4] = Half-life for hydrolysis to 5-fluoro-2'-deoxyuridine-5'-phosphate at […] Centigrade; assay type: ADME
[5] = (§1) Half-life for hydrolysis to 5-fluoro-2'-deoxyuridine-5'-phosphate at 100 degree Centigrade; assay type: ADME
L5178Y [6] = assay: as §1; assay type: functional; conditions: Mus musculus
[7] = Half-life for hydrolysis to 5-fluoro-2'-deoxyuridine-5'-phosphate at 65 degree Centigrade; assay type: ADME

Row | Compound | inhibition at 0.01 µM (L5178Y [1]) [%] | inhibition [2] | IC50 (L5178Y [3]) [nM] | half-life [4] [h] | half-life [5] [h] | T1/2 (L5178Y [6]) [h] | half-life [7] [h]
1 | O=c1[nH]c(=O)n([C@H]2C[C@H](O)[C@@H](COP(=O)(O)O)O2)cc1F [5-FLUORODEOXYURIDYLATE] | 67 | inactive | 1.4 | – | – | – | –
2 | NP(N)(=O)OC[C@H]1O[C@@H](n2cc(F)c(=O)[nH]c2=O)C[C@@H]1O | 45 | inactive | 2 | 0.25 | 3.9 | – | –
3 | O=c1[nH]c(=O)n([C@H]2C[C@H](O)[C@@H](CO)O2)cc1F [FLOXURIDINE] | – | inactive | 0.76 | – | – | – | –
4 | O=c1[nH]c(=O)n([C@H]2C[C@H](O)[C@@H](COP(=O)(N3CCOCC3)N3CCOCC3)O2)cc1F | 11 | inactive | – | – | – | 100 | 240

— ChEMBL document CHEMBL1121560, “Synthesis and biological activity of 5-fluoro-2'-deoxyuridine 5'-phosphorodiamidates” (J Med Chem, 1980)
